ChEMBL document CHEMBL1130157 (J Med Chem, 1997)

Key:
[1] = biological target: Translocator protein (Rattus norvegicus, UniProt P16257); test: Displacement of Ro 5-4864 from peripheral (renal cell) Benzodiazepine receptor
[2] = biological target: GABA-A receptor; anion channel; test: Displacement of [3H]flunitrazepam from rat brain GABA-A Benzodiazepine receptor
[3] = biological target: GABA-A receptor; anion channel (Rattus norvegicus) (UniProt O09028+P15431+P18506+P18508+P19969+P20236+P23574+P23576+P28471+P28473+P30191+P62813+P63079+P63138+Q91ZM7+Q9ES14); test: Percentage inhibition of [3H]flunitrazepam binding to rat brain GABA-A benzodiazepine receptor at 40 uM
[4] = biological target: T1, GABA A receptor alpha-2/beta-2/gamma-2 (Homo sapiens, UniProt P18507+P47869+P47870); test: Potentiation of GABA-evoked Cl- currents in Xenopus oocytes expressing human alpha-2-beta-2-gamma-2 subunits; format: functional, cell-based, Oocyte
T1 sequence (P47870 whole entry): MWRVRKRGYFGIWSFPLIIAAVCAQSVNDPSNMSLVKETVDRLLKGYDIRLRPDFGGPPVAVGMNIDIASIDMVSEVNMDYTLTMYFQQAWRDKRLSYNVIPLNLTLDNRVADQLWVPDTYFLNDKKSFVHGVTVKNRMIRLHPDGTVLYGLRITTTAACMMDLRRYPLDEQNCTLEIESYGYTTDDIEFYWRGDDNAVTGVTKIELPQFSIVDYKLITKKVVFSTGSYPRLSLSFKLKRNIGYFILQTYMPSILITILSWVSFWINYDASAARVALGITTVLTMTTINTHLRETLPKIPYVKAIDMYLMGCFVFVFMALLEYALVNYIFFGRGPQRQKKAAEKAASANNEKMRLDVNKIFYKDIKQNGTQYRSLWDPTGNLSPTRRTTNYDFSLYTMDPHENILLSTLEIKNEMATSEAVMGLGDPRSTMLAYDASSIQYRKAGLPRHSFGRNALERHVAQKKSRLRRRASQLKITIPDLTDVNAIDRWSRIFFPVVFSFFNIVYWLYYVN
T1 sequence (P18507 whole entry): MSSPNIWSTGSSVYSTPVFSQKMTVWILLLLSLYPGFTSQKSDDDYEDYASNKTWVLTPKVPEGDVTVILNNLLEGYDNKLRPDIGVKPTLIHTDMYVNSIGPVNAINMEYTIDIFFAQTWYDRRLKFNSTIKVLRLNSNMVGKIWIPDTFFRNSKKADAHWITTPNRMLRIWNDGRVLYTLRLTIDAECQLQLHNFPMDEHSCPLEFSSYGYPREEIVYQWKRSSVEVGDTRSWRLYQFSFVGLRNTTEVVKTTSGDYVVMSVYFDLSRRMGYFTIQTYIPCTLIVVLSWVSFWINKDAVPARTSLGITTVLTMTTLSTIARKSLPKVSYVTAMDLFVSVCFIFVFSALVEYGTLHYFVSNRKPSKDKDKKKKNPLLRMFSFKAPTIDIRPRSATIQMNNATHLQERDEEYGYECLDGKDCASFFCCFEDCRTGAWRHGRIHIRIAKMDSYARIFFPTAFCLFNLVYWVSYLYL
T1 sequence (P47869 whole entry): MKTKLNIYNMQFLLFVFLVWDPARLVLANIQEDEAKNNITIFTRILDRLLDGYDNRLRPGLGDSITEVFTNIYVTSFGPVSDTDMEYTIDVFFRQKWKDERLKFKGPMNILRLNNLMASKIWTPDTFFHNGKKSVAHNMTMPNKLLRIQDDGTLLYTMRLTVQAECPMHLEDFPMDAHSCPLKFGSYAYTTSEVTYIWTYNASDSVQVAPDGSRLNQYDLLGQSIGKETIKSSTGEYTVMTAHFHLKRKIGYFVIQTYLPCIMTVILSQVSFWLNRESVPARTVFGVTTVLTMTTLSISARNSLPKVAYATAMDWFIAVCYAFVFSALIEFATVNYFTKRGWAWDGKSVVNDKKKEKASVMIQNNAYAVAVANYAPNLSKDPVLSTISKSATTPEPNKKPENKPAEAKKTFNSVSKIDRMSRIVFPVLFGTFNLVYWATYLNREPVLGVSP

[5] = biological target: GABA A receptor alpha-2/beta-2/gamma-2 (Homo sapiens) (UniProt P47870+P18507+P47869); test: Maximal potentiation of GABA-evoked Cl- currents in Xenopus oocytes expressing human alpha-2-beta-2-gamma-2 subunits; format: functional, cell-based; details: Oocyte

Sequence of Translocator protein (P16257 whole entry, looked up): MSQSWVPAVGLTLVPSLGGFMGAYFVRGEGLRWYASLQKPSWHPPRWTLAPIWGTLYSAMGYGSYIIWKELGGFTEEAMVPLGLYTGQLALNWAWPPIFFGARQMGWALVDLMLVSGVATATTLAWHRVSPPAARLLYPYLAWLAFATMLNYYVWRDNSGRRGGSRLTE

## CCOC(=O)Cc1c(-c2ccccc2)nc2ccc(C)cn12
[1]
  IC50: > 100000 nM
[2]
  IC50: 1390 nM

## CCCN(CCC)C(=O)Cc1c(-c2ccccc2)nc2c(C)cc(Br)cn12
[3]
  inhibition: 68%
[1]
  IC50: 13.5 nM

## CCCN(CCC)C(=O)Cc1c(-c2ccccc2)nc2ccc(C)cn12
[1]
  IC50: 34.5 nM
[2]
  IC50: 125 nM

## CCCN(CCC)C(=O)Cc1c(-c2ccc(Cl)cc2)nc2ccc(Br)cn12
[1]
  IC50: 12 nM
[2]
  IC50: 58 nM

## CCCN(CCC)C(=O)Cc1c(-c2ccccc2)nc2ccc(I)cn12
[1]
  IC50: 23 nM
[2]
  IC50: 286 nM

## CCOC(=O)Cc1c(-c2ccccc2)nc2ccc(Cl)cn12
[1]
  IC50: > 100000 nM
[2]
  IC50: 1170 nM

## CCCN(CCC)C(=O)c1c(-c2ccc(Cl)cc2)nc2ccc(Cl)cn12
[1]
  IC50: 426 nM

## CCCN(CCC)C(=O)Cc1c(-c2ccccc2)nc2ccc(Cl)cn12
[1]
  IC50: 4 nM
[2]
  IC50: 86 nM
[4]
  EC50: 130 nM
[5]
  Efficacy: 139%

## CCCCOC(=O)Cc1c(-c2ccc(Cl)cc2)nc2ccc(Cl)cn12
[1]
  IC50: > 100000 nM
[2]
  IC50: 2780 nM

## CCOC(=O)CCc1c(-c2ccccc2)nc2ccc(Cl)cn12
[1]
  IC50: > 100000 nM
[2]
  IC50: 1110 nM

## CCCN(CCC)C(=O)CCc1c(-c2ccccc2)nc2ccc(Cl)cn12
[1]
  IC50: 3270 nM
[2]
  IC50: 308 nM

## CCCCOC(=O)Cc1c(-c2ccccc2)nc2ccc(C)cn12
[1]
  IC50: > 100000 nM
[2]
  IC50: 3150 nM

## O=C(c1c(-c2ccc(Cl)cc2)nc2ccc(Cl)cn12)N1CCCC1
[1]
  IC50: > 100000 nM
[2]
  IC50: 2980 nM

## O=C(Cc1c(-c2ccc(Cl)cc2)nc2ccc(Cl)cn12)N1CCCC1
[1]
  IC50: 287 nM
[2]
  IC50: 92 nM
[4]
  EC50: 6600 nM
[5]
  Efficacy: 71%

## CCCN(CCC)C(=O)Cc1c(-c2ccccc2)nc2ccc(OC)cn12
[1]
  IC50: 33.6 nM
[2]
  IC50: 2830 nM

## Cc1ccc(-c2nc3ccc(C)cn3c2CC(=O)N(C)C)cc1 [ZOLPIDEM]
[1]
  IC50: 4700 nM
[5]
  Efficacy: 150%

## CCCN(CCC)C(=O)Cc1c(-c2ccccc2)nc2ccccn12
[1]
  IC50: 80 nM
[2]
  IC50: 464 nM

## CCCN(CCC)C(=O)Cc1c(-c2ccccc2)nc2ccc([N+](=O)[O-])cn12
[1]
  IC50: 11.8 nM
[2]
  IC50: 2740 nM

## CCCN(CCC)C(=O)Cc1c(-c2ccc(Cl)cc2)nc2c(Cl)cc(Cl)cn12 [ALPDEM]
[3]
  inhibition: 0%
[1]
  IC50: 20 nM

## CCOC(=O)c1c(-c2ccccc2)nc2ccc(Cl)cn12
[1]
  IC50: > 100000 nM
[2]
  IC50: 2120 nM

## CCN(CC)C(=O)c1c(-c2ccc(Cl)cc2)nc2ccc(Cl)cn12
[1]
  IC50: 2040 nM
[2]
  IC50: 8380 nM

## CCOC(=O)c1c(-c2ccc(C)cc2)nc2ccc(C)cn12
[1]
  IC50: > 100000 nM
[2]
  IC50: 1150 nM

## O=C(Cc1c(-c2ccc(Cl)cc2)nc2ccc(Cl)cn12)N1CCCCC1
[1]
  IC50: 18.7 nM
[2]
  IC50: 240 nM

## CCCN(CCC)C(=O)Cc1c(-c2ccccc2)nc2c(Br)cc(C)cn12
[3]
  inhibition: 78%
[1]
  IC50: 19 nM

## CCCCOC(=O)Cc1c(-c2ccccc2)nc2ccc(Cl)cn12
[1]
  IC50: > 100000 nM
[2]
  IC50: 2500 nM

## CCCN(CCC)C(=O)Cc1c(-c2ccc(Cl)cc2)nc2ccc(Cl)cn12 [ALPIDEM]
[1]
  IC50: 7.9 nM
[2]
  IC50: 26 nM

## CCCN(CCC)C(=O)Cc1c(-c2ccccc2)nc2c(Cl)cc(Cl)cn12
[3]
  inhibition: 46%
[1]
  IC50: 12 nM

## CCCN(CCC)C(=O)Cc1c(-c2ccc(Cl)cc2)nc2c(Cl)cc(C(F)(F)F)cn12
[3]
  inhibition: 0%
[1]
  IC50: 37 nM

## CCOC(=O)Cc1c(-c2ccc(Cl)cc2)nc2ccc(Cl)cn12
[1]
  IC50: > 100000 nM
[2]
  IC50: 695 nM

## CCCN(CCC)C(=O)Cc1c(-c2ccccc2)nc2ccc(Br)cn12
[1]
  IC50: 14.5 nM
[2]
  IC50: 116 nM

## CCCCOC(=O)CCc1c(-c2ccccc2)nc2ccc(Cl)cn12
[1]
  IC50: > 100000 nM
[2]
  IC50: 1180 nM

## CCCN(CCC)C(=O)Cc1c(-c2ccc(Cl)cc2)nc2c(Br)cc(Br)cn12
[3]
  inhibition: 17%
[1]
  IC50: 55.3 nM
